Experimental data from patent US11162937B2, “Patient selection method for inflammation” (Purdue Research Foundation, priority 2013, dated 2021).

How the values were obtained:
[1] = system: mice with ulcerative colitis; experiment: DSS-induced ulcerative colitis mice: ^99mTc-EC20 radioimaging of colon, clinical score and colon length under therapy; assay type: in vivo; conditions: for clinical scores compared to disease control mice / colon shortening compared to disease control mice: after 8 days of continuous therapy; for clinical scores or colon lengths relative to saline-treated mice / ^99mTc-EC20 uptake in colon relative to saline-treated mice: day 4 of therapy; for ^99mTc-EC20 uptake in colon relative to saline-treated mice: 150 μCi ^99mTc-EC20; for ^99mTc-EC20 radioimages compared with the earlier time point (day 4): day 8 of therapy
Procedure: Ulcerative colitis was induced as previously described in S. Wirtz, C. […] Nat Protoc. 2, 541-546 (2007), incorporated herein by reference. Seven week old Balb/c mice (Harlan Laboratories) maintained on a folate-deficient diet were administered 5% dextran sodium sulfate (DSS) in their drinking water. Mice were divided into treatment groups (n=10 per group). Healthy mice and disease control mice received 100 μL saline daily by oral gavage. Diseased mice were treated daily with cimetidine (100 mg/kg) or sulphasalazine (150 mg/kg) by oral gavage. Healthy mice were maintained on normal water and similarly treated with saline. Disease symptoms were assessed daily and quantitated by adding the scores from each of the following tests: Weight loss: 0=no weight loss, 1=1-5% weight loss, 2=6-10% weight loss, 3=11-15% weight loss, 4=>15% weight loss; Stool appearance: 0=normal, 1=loose feces, 2=diarrhea; Hematochezia (blood in stool): 0=no blood, 1=positive via guaiac paper, 2=visually bloody; Overall appearance: 0=normal, 1=ruffled fur/altered gait, 2=lethargic, moribund. On day 4 of therapy, half of each treatment group (n=5) received an intraperitoneal injection of ^99mTc-EC20. After 4 hours, the injected mice were euthanized and the bladder and kidneys were removed to reduce background radiation associated with ^99mTc-EC20 undergoing excretion. Mice were then imaged to assess uptake of ^99mTc-EC20 in the colon, and the colons were removed and measured with calipers to evaluate colon shortening as a measure of disease severity. On day 8, the remaining mice were injected with ^99mTc-EC20 and analyzed similarly.
(§1) ^99mTc-EC20 was prepared as previously described in C. P. Leamon, M. A. Parker, I. R. Vlahov, L. Xu, J. A. Reddy, M. Vetzel, N. Douglas, Synthesis and Biological Evaluation of EC20: A New Folate-Derived, ^99mTc-Based Radiopharmaceutical. Bioconjugate Chem. 13, 1200-1210 (2002), incorporated herein by reference. A preparation method for ^99mTc-EC20 is also described in U.S. Pat. No. 7,128,893, incorporated herein by reference. Briefly, 1 mL of 15 mCi/mL sodium pertechnetate (Cardinal Health) was added to 0.1 mg of EC20 (a gift from Endocyte, Inc.) and heated at 100° C. for 18 min. After diluting with saline, 100 μL ^99mTc-EC20 (150 μCi (˜75 nmol of EC20 per kilogram for CIA, ulcerative colitis and pulmonary fibrosis mice) or 300 μCi (˜150 nmol of EC20 per kilogram for atherosclerosis)) was injected intraperitoneally into the desired mice, and unbound ^99mTc-EC20 was allowed to clear from tissues for 4 h. Mice were then either anesthetized with 3% isoflurane (CIA, atherosclerosis, and pulmonary fibrosis mice) or euthanized (ulcerative colitis mice) prior to image acquisition using a Kodak Image Station operated with Kodak molecular imaging software (version 4.5; Carestream Molecular Imaging). Radioimages were acquired for 2 minutes using a radioisotopic phosphor screen, no illumination source, 4×4 binning, focal plane=5, FOV=160, and f-stop=0. White light images were acquired for 0.175 seconds with white light transillumination source, no binning, focal plane=5, FOV=160, and f-stop=11.
Mice (n=10/group) were administered 5% dextran sulfate sodium (DSS) in water to induce ulcerative colitis and then treated daily with cimetidine, sulphasalazine or saline (disease control). Then on day 4, half of the mice (n=5/group) were injected with 150 μCi ^99mTc-EC20 and euthanized in preparation for subsequent imaging of their colons.

macrophage accumulation = experiment: Flow cytometric analysis (F480-PE) of macrophage accumulation in large intestine of ulcerative colitis mice; assay type: in vivo; conditions: after 4 days of treatment, F480-PE flow cytometry
Procedure: Ulcerative colitis was induced as described. Seven week old Balb/c mice (Harlan Laboratories) maintained on a folate-deficient diet were administered 5% dextran sodium sulfate (DSS) in their drinking water. Healthy control mice were maintained on normal water. Mice were divided into treatment groups (n=3 per group). Healthy mice and disease control mice received 100 μL saline daily by oral gavage. Diseased mice were treated daily with cimetidine (100 mg/kg) or sulphasalazine (150 mg/kg) by oral gavage. After 4 days of treatment, mice were euthanized and large intestines were removed. Equal weights of the large intestines were digested and made into single cell suspensions. Cells were included with mouse macrophage marker F480-PE and analyzed by flow cytometry.

ApoE−/− mice [2] = experiment: Atherosclerosis in ApoE−/− mice on high fat diet: ^99mTc-EC20 radioimaging and aortic histology under therapy; assay type: in vivo
Procedure: Five week old male ApoE−/− mice were purchased from Jackson Laboratories and placed on an adjusted calorie diet (42% from fat, Harlan Laboratories). Healthy control mice (C57BL/6) were similarly maintained on normal chow. Mice were divided into therapy groups (n=5). Healthy mice and disease control mice received 100 μL saline daily by oral gavage. Diseased mice were treated daily with valsartan (1 mg/kg), or fluvastatin (3 mg/kg) by oral gavage. After three weeks of treatment, mice were imaged with 300 μCi ^99mTc-EC20. Mice were again imaged with ^99mTc-EC20 after 12 weeks of therapy and then euthanized by CO2 asphyxiation. Aortas were dissected and H&E and oil red O staining was performed.
(§2) ^99mTc-EC20 was prepared as previously described in C.
The ability to predict response to therapy might be most useful when applied to treatment of inflammatory/autoimmune diseases that are either intrinsically difficult to monitor or slow to respond to therapeutic intervention. Because atherosclerosis suffers from both disadvantages due to its inaccessible location and slow rate of progression, ^99mTc-EC20 was analyzed to determine if it might be effective in predicting response to therapy in a common murine model of heart disease. […] After 3 weeks of daily treatment, when no morphological symptoms of heart disease could be detected, mice were anesthetized and imaged with ^99mTc-EC20.

ApoE−/− mice [3] = conditions: prior finding; cited from earlier work
CIA mice [4] = experiment: Collagen-induced arthritis (CIA) mice: ^99mTc-EC20 radioimaging, arthritis score and paw thickness under anti-inflammatory therapy; conditions: for disease symptoms (arthritis score, paw swelling) relative to disease control / uptake of ^99mTc-EC20 in the affected appendages relative to disease control: day 3 of therapy; for uptake of ^99mTc-EC20 in the affected appendages relative to disease control: 150 μCi ^99mTc-EC20 i.p., imaged after 4 h
Procedure: Collagen-induced arthritis (CIA) was initiated using established methods on 6-7 week old female DBA/1 mice (Jackson Laboratories) maintained on folate-deficient diet (Harlan-Teklad). Briefly, mice were immunized at the base of the tail with 100 μg bovine type II collagen emulsified in complete Freund's adjuvant (Chondrex, Inc., Redmond, Wash., USA). Mice were then boosted 21 days later with a similar injection of 100 μg bovine type II collagen emulsified in incomplete Freund's adjuvant. After four days, onset of arthritis was synchronized in all mice with an intraperitoneal injection of 25 μg lipopolysaccharide (LPS) dissolved in saline. Three days later mice were distributed equally across control and treatment groups (n=5). Healthy mice and disease control mice received daily intraperitoneal injections of 100 μL saline. […] Arthritis scores were assessed every other day by researchers blinded to the various treatment groups, using the following scoring system: 0=normal; 1=mild, but definite redness and swelling of the ankle or wrist, or apparent redness and swelling limited to individual digits, regardless of the number of affected digits; 2=moderate redness and swelling of ankle or wrist; 3=severe redness and swelling of the entire paw including digits; 4=maximally inflamed limb with involvement of multiple joints. A total score for each mouse was calculated by summing the scores for each of the four paws, allowing a maximum possible score of 16 per animal. Paw thickness was measured with calipers every other day starting on the first day of treatment. On day 3 of treatment, mice were anesthetized with isoflurane and imaged with ^99mTc-EC20 as described below. Mice were again imaged and then euthanized by CO2 asphyxiation on day 11 of treatment.
as §1
Mice were induced to develop collagen-induced arthritis (CIA, a well-established model of rheumatoid arthritis) and subjected 28 days later to treatment with methotrexate, dexamethasone or saline (disease control). Three days after initiation of therapy, the mice were injected with 150 μCi of ^99mTc-EC20 and subjected to their first planned radioimage analysis.

[5] = system: mice with pulmonary fibrosis; experiment: Bleomycin-induced pulmonary fibrosis mice: ^99mTc-EC20 radioimaging, BAL cell count, lung hydroxyproline, H&E; assay type: in vivo
Procedure: Pulmonary fibrosis was induced in mice as previously described in B. B. Moore, C. M. Hogaboam, Murine models of pulmonary fibrosis. Am J Physiol Lung Cell Mol Physiol. 294, L152-160 (2008), incorporated herein by reference. Briefly, 6 week old female C57BL/6 mice (Harlan Laboratories) maintained on a folate-deficient diet were anaesthetized with isoflurane, and 50 μL of bleomycin (2 U/kg body weight) dissolved in saline was intratracheally instilled into each mouse. Healthy control mice were similarly intratracheally instilled with 50 μL saline. Mice were then separated into treatment groups (n=5). […] Diseased mice were injected every day intraperitoneally with dexamethasone (0.5 mg/kg) or etanercept (300 μg). Mice were imaged with ^99mTc-EC20 after 6 days of treatment and again after 15 days of treatment. Mice were then euthanized by CO2 asphyxiation and bronchoalveolar lavage fluid was collected and cells were counted using a Beckman Coulter Z™ Series COULTER COUNTER® Cell and Particle Counter. The left lung was fixed in formalin and submitted to the Purdue Histology & Phenotyping Laboratory for H&E staining and the right lung was used for analysis of hydroxyproline content using a hydroxyproline assay kit from Sigma-Aldrich (St. Louis, Mo.).
as §2
Since pulmonary fibrosis is thought to be primarily driven by M2 macrophages, C57BL/6 mice were induced to develop an acute form of lung fibrosis by intratracheal instillation of bleomycin. Immediately following disease induction, mice were treated daily with intraperitoneal injections of dexamethasone, etanercept, or saline, and then imaged with ^99mTc-EC20 six days later.

CIA mice [6] = conditions: prior finding; cited from earlier work

Q: For O=C(O)c1cc(/N=N/c2ccc(S(=O)(=O)Nc3ccccn3)cc2)ccc1O [sulphasalazine], which “clinical scores compared to disease control mice” value [1] is on record?
A: significantly lower

Q: What about the “colon shortening compared to disease control mice” value [1] of the same compound?
A: reduced colon shortening

Q: And the “clinical scores or colon lengths relative to saline-treated mice” value [1]?
A: no significant difference

Q: And the “^99mTc-EC20 uptake in colon relative to saline-treated mice” value [1]?
A: significantly less

Q: What about the “^99mTc-EC20 radioimages compared with the earlier time point (day 4)” value [1] of the same compound?
A: essentially unchanged

Q: What about the “macrophage accumulation in large intestine compared to the disease control group” value (macrophage accumulation) of the same compound?
A: reduced macrophage accumulation

Q: Which results are given for CCCCC(=O)N(Cc1ccc(-c2ccccc2-c2nnn[nH]2)cc1)[C@H](C(=O)O)C(C)C [valsartan]?
A: ^99mTc-EC20 uptake in chest cavities relative to saline-treated mice (ApoE−/− mice [2]; after 3 weeks of daily treatment): significantly less; aortic wall thickening relative to saline-treated mice (ApoE−/− mice [2]; after 12 weeks of daily therapy, H&E): significantly reduced; plaque formation in murine models of atherosclerosis (have been shown) (ApoE−/− mice [3]): reduce plaque formation

Q: For etanercept, which “disease symptoms (arthritis score, paw swelling) relative to disease control” value (CIA mice [4]; CIA mice) is on record?
A: no significant difference

Q: And the “uptake of ^99mTc-EC20 in the affected appendages relative to disease control” value (CIA mice [4]; CIA mice)?
A: significantly less uptake

Q: What about the “disease symptoms / joint inflammation (arthritis score, paw thickness) relative to disease control” value (CIA mice [4]; CIA mice, day 11 of therapy) of the same compound?
A: significantly reduced inflammation

Q: And the “fibrosis by H&E analysis of the lungs” value ([5]; day 15 of treatment)?
A: reduced fibrosis

Q: What about the “hydroxyproline contents in resected lung tissues compared to saline-treated controls” value ([5]; day 15 of treatment) of the same compound?
A: reduced hydroxyproline contents

Q: And the “total cell counts in bronchoalveolar lavage fluids compared to saline-treated controls” value ([5]; day 15 of treatment)?
A: decreased total cell counts

Q: And the “accumulation of ^99mTc-EC20 compared to saline-treated disease controls” value ([5]; six days of treatment)?
A: decreased accumulation

Q: For Nc1nc2ncc(CNc3ccc(C(=O)N[C@H](CCC(=O)NC[C@@H]4[NH][99Tc]56(=[O])[S]C[C@@H](C(=O)O)[N]5C(=O)[C@H](CC(=O)O)[N]6C4=O)C(=O)O)cc3)nc2c(=O)[nH]1 [^99mTc-EC20], which “accumulation of ^99mTc-EC20 in inflamed appendages” value (CIA mice [4]; CIA mice not treated with any anti-inflammatory drug, 150 μCi i.p.) is on record?
A: exhibited the accumulation of ^99mTc-EC20 in their inflamed appendages

Q: Which “disease symptoms (arthritis score, paw swelling) relative to disease control” value (CIA mice [4]; CIA mice) does the source give for CN(Cc1cnc2nc(N)nc(N)c2n1)c1ccc(C(=O)N[C@@H](CCC(=O)O)C(=O)O)cc1 [methotrexate] here?
A: no reduction

Q: What about the “uptake of ^99mTc-EC20 in the affected appendages relative to disease control” value (CIA mice [4]; CIA mice) of the same compound?
A: markedly less

Q: What about the “disease symptoms / joint inflammation (arthritis score, paw thickness) relative to disease control” value (CIA mice [4]; CIA mice, day 11 of therapy) of the same compound?
A: substantially resolved

Q: What about the “uptake of ^99mTc-EC20 (radioimages)” value (CIA mice [4]; CIA mice, day 11 of therapy) of the same compound?
A: significantly reduced uptake

Q: What does the source list for CN/C(=N/CCSCc1nc[nH]c1C)NC#N [cimetidine]?
A: clinical scores compared to disease control mice [1]: significantly lower; colon shortening compared to disease control mice [1]: reduced colon shortening; clinical scores or colon lengths relative to saline-treated mice [1]: no significant difference; ^99mTc-EC20 uptake in colon relative to saline-treated mice [1]: significantly less; ^99mTc-EC20 radioimages compared with the earlier time point (day 4) [1]: essentially unchanged; macrophage accumulation in large intestine compared to the disease control group (macrophage accumulation): reduced macrophage accumulation

Q: For COc1ccc2cc([C@H](C)C(=O)O)ccc2c1 [naproxen], which “efficacy in the CIA model of arthritis in mice (previously found)” value (CIA mice [6]) is on record?
A: little efficacy
